Experiment: Near infrared whole body florescent imaging, IVIS in-vivo imaging system
Details: nude mice, 100 μl injected once, 0.15 mg/ml ICG
Description: Near Infrared based florescent imaging was carried out in nude mice through IVIS in-vivo imaging system. Briefly, 100 μl of samples of free ICG solution (0.15 mg/ml), PMMA-COOH (0.15 mg/ml of ICG present in nanoparticles) and Pegylated nanoparticles containing ICG (0.15 mg/ml) were injected once and their florescence were recorded at various time points as shown in FIGS. 8A-8C. […] There are three possible reasons for florescence quenching; namely, (i) degradation of free ICG physiological conditions, or (ii) rapid clearance of free ICG from the body, or (iii) a combination of both processes.

CC1(C)C(/C=C/C=C/C=C/C=C2\N(CCCCS(=O)(=O)O)c3ccc4ccccc4c3C2(C)C)=[N+](CCCCS(=O)(=O)[O-])c2ccc3ccccc3c21 [free ICG, indocyanine green]
time within which florescence diminished: ≤ 6 h | time within which florescence was completely reduced to almost zero: ≤ 24 h
